Where “and” joins values, the source holds several entries; their conditions need not be identical. Identical values can stand only once.
Columns and labels:
[1] = molecular target: T1, MRGPRX4 (Homo sapiens, UniProt Q96LA9); assay: Microscale thermophoresis binding to MRGPRX4; set-up: microscale thermophoresis response (binding isotherm), mean: unit not given here; conditions: for microscale thermophoresis response (binding isotherm), mean: mean of n=3, Fig 2-J; for Binding to MRGPRX4: microscale thermophoresis
T1 construct: expressed in transfected cells
T1 sequence (Q96LA9 whole entry): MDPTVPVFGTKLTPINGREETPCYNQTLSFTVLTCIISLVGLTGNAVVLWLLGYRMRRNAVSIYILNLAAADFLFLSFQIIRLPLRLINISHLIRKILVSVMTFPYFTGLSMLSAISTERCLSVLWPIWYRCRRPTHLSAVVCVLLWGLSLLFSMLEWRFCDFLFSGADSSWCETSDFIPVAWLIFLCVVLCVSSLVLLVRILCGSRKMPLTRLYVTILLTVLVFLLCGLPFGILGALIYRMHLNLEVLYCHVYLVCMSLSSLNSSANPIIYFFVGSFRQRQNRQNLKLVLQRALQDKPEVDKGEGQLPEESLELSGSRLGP
Procedure: Binding isotherms for MRGPRA1, MRGPRX4, and MRGRPC11 towards various ligands were determined by microscale thermophoresis with the NanoTemper monolith NT.115 instrument ([Duhr and Braun, 2006]). Ligands were pre-incubated with 10 µM of the GFP-tagged receptor of interest for 5 min at room temperature in binding buffer (20 mM Tris and 150 mM NaCl at pH 8.8). Receptors were crudely purified as a membrane fraction from cells stably expressing the receptor ([Vasavda et al., 2017]). Haem metabolites were freshly dissolved in 0.1 M NaOH in dim light and then diluted into assay buffer. Lyophilized BAM8-22 was dissolved in binding buffer. The pH of each ligand was evaluated prior to incubation with a receptor. Samples were loaded into NT.115 Hydrophobic-Treated Capillaries from NanoTemper. Microscale thermophoretic experiments were executed using 20% LED power and 15% MST power. KDs were calculated using the law of mass action with data from three independent experiments. Binding between bilirubin and receptors was evaluated purely thermophoretically, whereas binding between BAM8-22 and MRGPRC11 was evaluated by T-Jump. Samples with dramatic deviations in initial fluorescence were excluded.

[2] = molecular target: T2, MRGPRA1 (Mus musculus, UniProt Q91WW5); assay: Ca2+ imaging and concentration-Ca2+ response (EC50) in HEK293 cells expressing MRGPRA1; assay type: cell-based; conditions: for Calcium response / activation of MRGPRA1-expressing cells: 50 µM bilirubin, 30 µM FMRF; for Ca2+ response (concentration-response curve): MRGPRA1, triplicate wells (Fig 2D)
T2 construct: expressed in transfected cells
T2 sequence (Q91WW5 1-304): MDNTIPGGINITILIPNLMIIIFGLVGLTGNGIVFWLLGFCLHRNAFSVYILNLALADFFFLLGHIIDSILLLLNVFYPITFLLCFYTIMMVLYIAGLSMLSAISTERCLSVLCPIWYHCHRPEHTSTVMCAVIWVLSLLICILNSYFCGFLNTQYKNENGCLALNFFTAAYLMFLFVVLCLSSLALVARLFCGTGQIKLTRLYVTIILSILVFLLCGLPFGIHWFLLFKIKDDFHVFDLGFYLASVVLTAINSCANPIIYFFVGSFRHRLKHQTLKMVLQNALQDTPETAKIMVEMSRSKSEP
Procedure: (§1) All cultured cells were maintained in DMEM supplemented with 10% FBS and 1% Penicillin/Streptomycin at 37°C, 5% CO2. All data included were generated from cells tested for mycoplasma and found to be negative. Cells were imaged in calcium imaging buffer (CIB; 10 mM HEPES, 1.2 mM NaHCO3, 130 mM NaCl, 3 mM KCl, 2.5 mM CaCl2, 0.6 mM MgCl2, 20 mM glucose, and 20 mM sucrose at pH 7.4 and 290–300 mOsm). To monitor changes in intracellular [Ca^2+] ([Ca^2+]i), cells were loaded with either Fura 2-AM (HEK293 cells) or Fluo 4-AM (DRG neurons and mast cells) for 30 min in the dark at 37°C in CIB just prior to imaging. With Fura 2-AM, emission at 510 nm was monitored from excitation at both 340 nm and 380 nm. With Fluo 4-AM, emission at 520 nm was monitored from excitation at 488 nm. Cells were identified as responding if the intracellular [Ca^2+] rose by either 50% compared to baseline or 50% compared to the [Ca^2+]i change assayed during addition of 50 mM KCl (neurons only). Damaged, detached, high-baseline, and motion-activated cells were excluded from analysis.
(§2) In initial screens, HEK293 cells stably expressing the murine G-protein alpha-subunit Gα15, a unique Gα protein that non-selectively couples a large variety of GPCRs to phospholipase C ^30, were plated on poly-D-lysine-coated coverslips and transiently transfected with constructs encoding the MRGRPR of interest. 12–24 hr later, cells were loaded with the Fura 2-AM. Unless otherwise specified, compounds were perfused into the imaging chamber for approximately thirty seconds after a baseline period was established. Response was then monitored at 5 s intervals for an additional 60 s.
(§3) HEK293 cells stably expressing either MRGPRA1, MRGPRX4, and MRGRPC11 were seeded in poly-D-lysine-coated 96-well plates at 10,000 cells/well. Cells were loaded with Fura 2–AM, washed twice, and maintained in CIB. Haem metabolites were freshly dissolved in DMSO in dim light and then diluted into a buffer comprised of 20 mM Tris and 150 mM NaCl at pH 8.8. Potential changes in pH were evaluated prior to each experiment. EC50 values were determined from dose-responses performed in triplicate, repeated 2–4 times. To determine potential antagonism by QWF against bilirubin, cells were treated with varying doses of QWF for 1 min in CIB prior to application of agonist.
(§4) HEK293 stable cell lines expressing GFP-tagged MRGPRA3, MRGPRC11, MRGPRD, MRGPRX1, and MRGPRX2 were generated in previously described reports ([Liu et al., 2009]; [Liu et al., 2012]; [McNeil et al., 2015]). Briefly, plasmids containing the receptor of interest were transfected into HEK cells using Lipofectamine 3000. After 3 days, cells were then selected using 0.5 mg/mL G418. After 3 weeks, monoclonal colonies were established and each the highest expressing clones were identified. For this study, Mrgpra1 and MRGPRX4 were inserted into pEGFP-N1 and transfected into HEK293 cells. MRGPR-positive cells were selected using 0.5 mg/mL G418 for three weeks, after which GFP-positive cells were sorted by FACS and monoclonally expanded. Two lines expressing similar levels of MRGPRA1 and MRGPRX4, as measured by GFP fluorescence, were selected for study.

[3] = molecular target: T1, MRGPRX4; assay: Ca2+ imaging and concentration-Ca2+ response (EC50) in HEK293 cells expressing MRGPRX4; assay type: cell-based; conditions: for Ca2+ response (concentration-response curve): MRGPRX4, triplicate wells (Fig 2I)
Procedure: as §1, §2, §3, §4

microscale thermophoresis response (binding isotherm), mean ([1]; [Ligand] 3.05e-8 M) | microscale thermophoresis response (binding isotherm), mean ([1]; [Ligand] 6.1e-8 M) | microscale thermophoresis response (binding isotherm), mean ([1]; [Ligand] 1.221e-7 M) | microscale thermophoresis response (binding isotherm), mean ([1]; [Ligand] 2.441e-7 M) | microscale thermophoresis response (binding isotherm), mean ([1]; [Ligand] 4.883e-7 M) | microscale thermophoresis response (binding isotherm), mean ([1]; [Ligand] 9.766e-7 M) | microscale thermophoresis response (binding isotherm), mean ([1]; [Ligand] 1.9531e-6 M) | microscale thermophoresis response (binding isotherm), mean ([1]; [Ligand] 3.9063e-6 M) | microscale thermophoresis response (binding isotherm), mean ([1]; [Ligand] 7.8125e-6 M) | microscale thermophoresis response (binding isotherm), mean ([1]; [Ligand] 1.5625e-5 M) | microscale thermophoresis response (binding isotherm), mean ([1]; [Ligand] 3.125e-5 M) | microscale thermophoresis response (binding isotherm), mean ([1]; [Ligand] 6.25e-5 M) | microscale thermophoresis response (binding isotherm), mean ([1]; [Ligand] 0.000125 M) | microscale thermophoresis response (binding isotherm), mean ([1]; [Ligand] 0.00025 M) | microscale thermophoresis response (binding isotherm), mean ([1]; [Ligand] 0.0005 M) | Calcium response / activation of MRGPRA1-expressing cells [2] | Calcium response / activation of MRGPRX4-expressing cells [3] | Compound | Binding to MRGPRX4 [1] | further results
14.6332 | -0.3949 | -3.186 | 10.7277 | 1.18 | 3.799 | 8.125 | 1.993 | 2.933 | -0.662 | 8.64 | 18.6992 | 39.4499 | 46.5687 | 49.0399 | activated MRGPRA1-expressing cells | activated MRGPRX4 | C=CC1=C(C)/C(=C/c2[nH]c(Cc3[nH]c(/C=C4\NC(=O)C(C)=C4C=C)c(C)c3CCC(=O)NCCS(=O)(=O)O)c(CCC(=O)NCCS(=O)(=O)O)c2C)NC1=O [conjugated bilirubin, bilirubin ditaurate] | lower affinity than unconjugated bilirubin | microscale thermophoresis response (binding isotherm), mean ([1]; [Ligand] 0.001 M): 52.0554; Ca2+ response (concentration-response curve) ([2]; [Ligand] 7.8125e-6 M): 1.221 and 1.276 and 1.273; Ca2+ response (concentration-response curve) ([2]; [Ligand] 1.5625e-5 M): 1.253 and 1.283 and 1.252; Ca2+ response (concentration-response curve) ([2]; [Ligand] 3.125e-5 M): 1.222 and 1.225 and 1.221; Ca2+ response (concentration-response curve) ([2]; [Ligand] 6.25e-5 M): 1.19 and 1.186 and 1.177; Ca2+ response (concentration-response curve) ([2]; [Ligand] 0.000125 M): 1.212 and 1.254 and 1.214; Ca2+ response (concentration-response curve) ([2]; [Ligand] 0.00025 M): 1.3325 and 1.3437 and 1.301; Ca2+ response (concentration-response curve) ([2]; [Ligand] 0.0005 M): 1.4484 and 1.4326 and 1.424; Ca2+ response (concentration-response curve) ([2]; [Ligand] 0.001 M): 1.572 and 1.554 and 1.499; Ca2+ response (concentration-response curve) ([3]; [Ligand] 3.90625e-6 M): 1.434 and 1.4137 and 1.361; Ca2+ response (concentration-response curve) ([3]; [Ligand] 7.8125e-6 M): 1.454 and 1.384 and 1.354; Ca2+ response (concentration-response curve) ([3]; [Ligand] 1.5625e-5 M): 1.439 and 1.34 and 1.332; Ca2+ response (concentration-response curve) ([3]; [Ligand] 3.125e-5 M): 1.623 and 1.449 and 1.378; Ca2+ response (concentration-response curve) ([3]; [Ligand] 6.25e-5 M): 1.761 and 1.61 and 1.52; Ca2+ response (concentration-response curve) ([3]; [Ligand] 0.000125 M): 1.756 and 1.629 and 1.666; Ca2+ response (concentration-response curve) ([3]; [Ligand] 0.00025 M): 1.735 and 1.736 and 1.6528; Ca2+ response (concentration-response curve) ([3]; [Ligand] 0.0005 M): 1.775 and 1.779 and 1.74
0 | 0 | 0 | 0 | 0 | 0 | 0 | 0 | 0 | 0 | 0 | 0 | 0 | 0 | 0 | failed to activate MRGPRA1 | had no effect | hemin | did not bind | –

Reference: PMC6368403, “Identification of a bilirubin receptor that may mediate a component of cholestatic itch” (eLife, 2019)
